Experimental data as given in ChEMBL document CHEMBL4513139, “CO-ADD screening of University of Strathclyde (UK) compounds”.
In brackets after ≈: the same amount, converted by molar mass.

test system: Staphylococcus aureus; experiment: microbe, parasite or virus in culture; conditions: ATCC 43300, 18 h, ASSAY_TEST Inhibition of Bacterial Growth, detection method Absorption (OD600), MEDIA CAMHB, plate type 384well, NBS, CORNING #3640
Description: Antibacterial activity against Staphylococcus aureus MRSA ATCC 43300 (CO-ADD:GP_020); MIC in CAMBH media, using NBS plates, by OD(600)

| MIC | Compound |
| --- | --- |
| > 32 µg/mL | COc1cccc(/C=C/c2ccc(C(=O)Nc3cc(C(=O)Nc4cc(C(=O)NCCN5CCOCC5)n(C)c4)n(C)c3)cc2)c1.O=C(O)C(F)(F)F |
| 2 µg/mL | CN(C)CCNC(=O)c1cc(NC(=O)c2cc(NC(=O)c3ccc(/C=C/c4ccc(N(C)C)cc4)nc3)cn2C)cn1C.O=C(O)C(F)(F)F.O=C(O)C(F)(F)F |
| > 32 µM | Cn1cc(NC(=O)c2cc(NC=O)cn2C)cc1C(=O)NCCC(=N)N.O=C(O)C(F)(F)F |
| 16 µg/mL | COc1ccc(C(=N)Nc2cc(C(=O)Nc3nc(C(=O)NCCN4CCOCC4)c(CCc4ccccc4)s3)n(C)c2)cc1 |
| > 32 µg/mL | Cn1cc(NC(=O)c2cc(NC(=O)c3ccc(/C=C/c4cnc5ccccc5c4)cc3)cn2C)cc1C(=O)NCCN1CCCC1=O.O=C(O)C(F)(F)F |
| > 32 µg/mL | Cn1cc(NC(=O)c2cc(NC(=N)c3cnc4ccccc4c3)cn2C)cc1C(=O)NCCC(=N)N.O=C(O)C(F)(F)F.O=C(O)C(F)(F)F.O=C(O)C(F)(F)F |

test system: Cryptococcus neoformans; experiment: not given; conditions: not given

| MIC | Compound |
| --- | --- |
| 2 µg/mL | CN(C)CCNC(=O)c1cc(NC(=O)c2cc(NC(=O)c3ccc(/C=C/c4ccc(N(C)C)cc4)nc3)cn2C)cn1C.O=C(O)C(F)(F)F.O=C(O)C(F)(F)F |
| > 32 µM | Cn1cc(NC(=O)c2cc(NC=O)cn2C)cc1C(=O)NCCC(=N)N.O=C(O)C(F)(F)F |
| 1 µg/mL | COc1ccc(C(=N)Nc2cc(C(=O)Nc3nc(C(=O)NCCN4CCOCC4)c(CCc4ccccc4)s3)n(C)c2)cc1 |
| > 32 µg/mL | Cn1cc(NC(=O)c2cc(NC(=O)c3ccc(/C=C/c4cnc5ccccc5c4)cc3)cn2C)cc1C(=O)NCCN1CCCC1=O.O=C(O)C(F)(F)F |
| > 32 µg/mL | Cn1cc(NC(=O)c2cc(NC(=N)c3cnc4ccccc4c3)cn2C)cc1C(=O)NCCC(=N)N.O=C(O)C(F)(F)F.O=C(O)C(F)(F)F.O=C(O)C(F)(F)F |

test system: Candida albicans; experiment: microbe, parasite or virus in culture; conditions: ATCC 90028, ASSAY_TEST Inhibition of Fungal Growth, detection method Absorption (OD530), plate type 384well, NBS, CORNING #3640
Description: Antifungal activity against Candida albicans ATCC 90028 (CO-ADD:FG_001); MIC in YNB media using NBS plates, by OD630

| MIC | Compound |
| --- | --- |
| > 32 µg/mL | COc1cccc(/C=C/c2ccc(C(=O)Nc3cc(C(=O)Nc4cc(C(=O)NCCN5CCOCC5)n(C)c4)n(C)c3)cc2)c1.O=C(O)C(F)(F)F |
| 4 µg/mL | CN(C)CCNC(=O)c1cc(NC(=O)c2cc(NC(=O)c3ccc(/C=C/c4ccc(N(C)C)cc4)nc3)cn2C)cn1C.O=C(O)C(F)(F)F.O=C(O)C(F)(F)F |
| > 32 µM | Cn1cc(NC(=O)c2cc(NC=O)cn2C)cc1C(=O)NCCC(=N)N.O=C(O)C(F)(F)F |
| > 32 µg/mL | COc1ccc(C(=N)Nc2cc(C(=O)Nc3nc(C(=O)NCCN4CCOCC4)c(CCc4ccccc4)s3)n(C)c2)cc1 |
| > 32 µg/mL | Cn1cc(NC(=O)c2cc(NC(=O)c3ccc(/C=C/c4cnc5ccccc5c4)cc3)cn2C)cc1C(=O)NCCN1CCCC1=O.O=C(O)C(F)(F)F |
| > 32 µg/mL | Cn1cc(NC(=O)c2cc(NC(=N)c3cnc4ccccc4c3)cn2C)cc1C(=O)NCCC(=N)N.O=C(O)C(F)(F)F.O=C(O)C(F)(F)F.O=C(O)C(F)(F)F |

test system: Klebsiella pneumoniae; experiment: microbe, parasite or virus in culture; conditions: ATCC 700603, 18 h, ASSAY_TEST Inhibition of Bacterial Growth, detection method Absorption (OD600), MEDIA CAMHB, plate type 384well, NBS, CORNING #3640
Description: Antibacterial activity against Klebsiella pneumoniae MDR ATCC 70063 (CO-ADD:GN_003); MIC in CAMBH media using NBS plates, by OD(600)

| MIC | Compound |
| --- | --- |
| > 32 µg/mL | COc1cccc(/C=C/c2ccc(C(=O)Nc3cc(C(=O)Nc4cc(C(=O)NCCN5CCOCC5)n(C)c4)n(C)c3)cc2)c1.O=C(O)C(F)(F)F |
| > 32 µg/mL | CN(C)CCNC(=O)c1cc(NC(=O)c2cc(NC(=O)c3ccc(/C=C/c4ccc(N(C)C)cc4)nc3)cn2C)cn1C.O=C(O)C(F)(F)F.O=C(O)C(F)(F)F |
| > 32 µM | Cn1cc(NC(=O)c2cc(NC=O)cn2C)cc1C(=O)NCCC(=N)N.O=C(O)C(F)(F)F |
| > 32 µg/mL | COc1ccc(C(=N)Nc2cc(C(=O)Nc3nc(C(=O)NCCN4CCOCC4)c(CCc4ccccc4)s3)n(C)c2)cc1 |
| > 32 µg/mL | Cn1cc(NC(=O)c2cc(NC(=O)c3ccc(/C=C/c4cnc5ccccc5c4)cc3)cn2C)cc1C(=O)NCCN1CCCC1=O.O=C(O)C(F)(F)F |
| > 32 µg/mL | Cn1cc(NC(=O)c2cc(NC(=N)c3cnc4ccccc4c3)cn2C)cc1C(=O)NCCC(=N)N.O=C(O)C(F)(F)F.O=C(O)C(F)(F)F.O=C(O)C(F)(F)F |

test system: Pseudomonas aeruginosa; experiment: microbe, parasite or virus in culture; conditions: ATCC 27853, 18 h, ASSAY_TEST Inhibition of Bacterial Growth, detection method Absorption (OD600), MEDIA CAMHB, plate type 384well, NBS, CORNING #3640
Description: Antibacterial activity against Pseudomonas aeruginosa ATCC 27853 (CO-ADD:GN_042); MIC in CAMBH media using NBS plates, by OD(600)

| MIC | Compound |
| --- | --- |
| > 32 µg/mL | COc1cccc(/C=C/c2ccc(C(=O)Nc3cc(C(=O)Nc4cc(C(=O)NCCN5CCOCC5)n(C)c4)n(C)c3)cc2)c1.O=C(O)C(F)(F)F |
| > 32 µg/mL | CN(C)CCNC(=O)c1cc(NC(=O)c2cc(NC(=O)c3ccc(/C=C/c4ccc(N(C)C)cc4)nc3)cn2C)cn1C.O=C(O)C(F)(F)F.O=C(O)C(F)(F)F |
| > 32 µM | Cn1cc(NC(=O)c2cc(NC=O)cn2C)cc1C(=O)NCCC(=N)N.O=C(O)C(F)(F)F |
| > 32 µg/mL | COc1ccc(C(=N)Nc2cc(C(=O)Nc3nc(C(=O)NCCN4CCOCC4)c(CCc4ccccc4)s3)n(C)c2)cc1 |
| > 32 µg/mL | Cn1cc(NC(=O)c2cc(NC(=O)c3ccc(/C=C/c4cnc5ccccc5c4)cc3)cn2C)cc1C(=O)NCCN1CCCC1=O.O=C(O)C(F)(F)F |
| > 32 µg/mL | Cn1cc(NC(=O)c2cc(NC(=N)c3cnc4ccccc4c3)cn2C)cc1C(=O)NCCC(=N)N.O=C(O)C(F)(F)F.O=C(O)C(F)(F)F.O=C(O)C(F)(F)F |

test system: HEK293; experiment: cells; format: functional, Homo sapiens, ATCC CRL1573; conditions: ASSAY_TEST Inhibition of Cell Viability; detection method Resazurin; Fluorescence (ex560/em590); MEDIA DMEM with 10% FBS; plate type 384well; TC; CORNING #3712; time 18 hr

| Compound | CC50 |
| --- | --- |
| COc1cccc(/C=C/c2ccc(C(=O)Nc3cc(C(=O)Nc4cc(C(=O)NCCN5CCOCC5)n(C)c4)n(C)c3)cc2)c1.O=C(O)C(F)(F)F | 3.46 µg/mL |

same assay, conditions: Homo sapiens, ATCC CRL1573, HEK293; ASSAY_TEST Inhibition of Cell Viability; detection method Resazurin; Fluorescence (ex560/em590); MEDIA DMEM with 10% FBS; plate type 384well; TC; CORNING #3712; time 18 hr; read-out: CC50

| Compound | CC50 |
| --- | --- |
| COc1cccc(/C=C/c2ccc(C(=O)Nc3cc(C(=O)Nc4cc(C(=O)NCCN5CCOCC5)n(C)c4)n(C)c3)cc2)c1.O=C(O)C(F)(F)F | 3.75 µg/mL |
| CN(C)CCNC(=O)c1cc(NC(=O)c2cc(NC(=O)c3ccc(/C=C/c4ccc(N(C)C)cc4)nc3)cn2C)cn1C.O=C(O)C(F)(F)F.O=C(O)C(F)(F)F | 1.13 µg/mL |
| Cn1cc(NC(=O)c2cc(NC=O)cn2C)cc1C(=O)NCCC(=N)N.O=C(O)C(F)(F)F | > 32 µg/mL |
| COc1ccc(C(=N)Nc2cc(C(=O)Nc3nc(C(=O)NCCN4CCOCC4)c(CCc4ccccc4)s3)n(C)c2)cc1 | 7.47 µg/mL (≈ 12.1 µM) |
| Cn1cc(NC(=O)c2cc(NC(=O)c3ccc(/C=C/c4cnc5ccccc5c4)cc3)cn2C)cc1C(=O)NCCN1CCCC1=O.O=C(O)C(F)(F)F | 12.7 µg/mL |
| Cn1cc(NC(=O)c2cc(NC(=N)c3cnc4ccccc4c3)cn2C)cc1C(=O)NCCC(=N)N.O=C(O)C(F)(F)F.O=C(O)C(F)(F)F.O=C(O)C(F)(F)F | > 32 µg/mL |

test system: Escherichia coli; experiment: microbe, parasite or virus in culture; conditions: ATCC 25922, 18 h, ASSAY_TEST Inhibition of Bacterial Growth, detection method Absorption (OD600), MEDIA CAMHB, plate type 384well, NBS, CORNING #3640
Description: Antibacterial activity against Escherichia coli ATCC 25922 (CO-ADD:GN_001); MIC in CAMBH media using NBS plates, by OD(600)

| MIC | Compound |
| --- | --- |
| > 32 µg/mL | COc1cccc(/C=C/c2ccc(C(=O)Nc3cc(C(=O)Nc4cc(C(=O)NCCN5CCOCC5)n(C)c4)n(C)c3)cc2)c1.O=C(O)C(F)(F)F |
| > 32 µg/mL | CN(C)CCNC(=O)c1cc(NC(=O)c2cc(NC(=O)c3ccc(/C=C/c4ccc(N(C)C)cc4)nc3)cn2C)cn1C.O=C(O)C(F)(F)F.O=C(O)C(F)(F)F |
| > 32 µM | Cn1cc(NC(=O)c2cc(NC=O)cn2C)cc1C(=O)NCCC(=N)N.O=C(O)C(F)(F)F |
| > 32 µg/mL | COc1ccc(C(=N)Nc2cc(C(=O)Nc3nc(C(=O)NCCN4CCOCC4)c(CCc4ccccc4)s3)n(C)c2)cc1 |
| > 32 µg/mL | Cn1cc(NC(=O)c2cc(NC(=O)c3ccc(/C=C/c4cnc5ccccc5c4)cc3)cn2C)cc1C(=O)NCCN1CCCC1=O.O=C(O)C(F)(F)F |
| > 32 µg/mL | Cn1cc(NC(=O)c2cc(NC(=N)c3cnc4ccccc4c3)cn2C)cc1C(=O)NCCC(=N)N.O=C(O)C(F)(F)F.O=C(O)C(F)(F)F.O=C(O)C(F)(F)F |

test system: Acinetobacter baumannii; experiment: microbe, parasite or virus in culture; conditions: ATCC 19606, 18 h, ASSAY_TEST Inhibition of Bacterial Growth, detection method Absorption (OD600), MEDIA CAMHB, plate type 384well, NBS, CORNING #3640
Description: Antibacterial activity against Acinetobacter baumannii ATCC 19606 (CO-ADD:GN_034); MIC in CAMBH media using NBS plates, by OD600

| MIC | Compound |
| --- | --- |
| > 32 µg/mL | COc1cccc(/C=C/c2ccc(C(=O)Nc3cc(C(=O)Nc4cc(C(=O)NCCN5CCOCC5)n(C)c4)n(C)c3)cc2)c1.O=C(O)C(F)(F)F |
| > 32 µg/mL | CN(C)CCNC(=O)c1cc(NC(=O)c2cc(NC(=O)c3ccc(/C=C/c4ccc(N(C)C)cc4)nc3)cn2C)cn1C.O=C(O)C(F)(F)F.O=C(O)C(F)(F)F |
| > 32 µM | Cn1cc(NC(=O)c2cc(NC=O)cn2C)cc1C(=O)NCCC(=N)N.O=C(O)C(F)(F)F |
| > 32 µg/mL | COc1ccc(C(=N)Nc2cc(C(=O)Nc3nc(C(=O)NCCN4CCOCC4)c(CCc4ccccc4)s3)n(C)c2)cc1 |
| > 32 µg/mL | Cn1cc(NC(=O)c2cc(NC(=O)c3ccc(/C=C/c4cnc5ccccc5c4)cc3)cn2C)cc1C(=O)NCCN1CCCC1=O.O=C(O)C(F)(F)F |
| > 32 µg/mL | Cn1cc(NC(=O)c2cc(NC(=N)c3cnc4ccccc4c3)cn2C)cc1C(=O)NCCC(=N)N.O=C(O)C(F)(F)F.O=C(O)C(F)(F)F.O=C(O)C(F)(F)F |
